The values below come from patent US20250034170A1, “SMALL MOLECULE MODULATORS OF GLUCOCEREBROSIDASE ACTIVITY AND USES THEREOF” (Vanqua Bio, Inc., priority 2021, published 2025).

Each structure is given as a SMILES string. Where only a bound is given, the exact number is not on record here.

The target of the experiment is T1, GCase (Homo sapiens, UniProt P04062).
T1 construct: endogenous in cells; host or cells: HeLa cells
T1 sequence (P04062 40-536): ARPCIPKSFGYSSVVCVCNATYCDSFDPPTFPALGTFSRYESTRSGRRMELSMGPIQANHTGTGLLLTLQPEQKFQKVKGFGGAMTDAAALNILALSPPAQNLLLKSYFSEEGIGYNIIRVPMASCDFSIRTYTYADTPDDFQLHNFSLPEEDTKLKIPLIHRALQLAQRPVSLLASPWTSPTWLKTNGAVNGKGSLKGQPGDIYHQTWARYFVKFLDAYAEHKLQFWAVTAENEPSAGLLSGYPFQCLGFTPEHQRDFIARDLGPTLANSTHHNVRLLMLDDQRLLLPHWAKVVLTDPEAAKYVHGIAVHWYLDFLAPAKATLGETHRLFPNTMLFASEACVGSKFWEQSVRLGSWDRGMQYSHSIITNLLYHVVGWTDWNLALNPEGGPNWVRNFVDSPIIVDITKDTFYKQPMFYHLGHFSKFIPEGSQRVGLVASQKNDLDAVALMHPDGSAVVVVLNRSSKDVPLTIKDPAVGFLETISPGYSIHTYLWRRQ
In words: activation of GCase in a live cell PFB assay in HELA cells. Format: cell-based. Particulars: activation of GCase, EC50 ranges. The method, then:
Exemplary compounds were evaluated for activation of GCase in a live cell PFB assay in HELA cells (essentially as described in Ysselstein et al., “LRRK2 kinase activity regulates lysosomal glucocerebrosidase in neurons derived from Parkinson's disease patients” Nature Communications (2019) 10:5570). […] EC50 ranges: A: <10 μM; B: >10-50 μM; C: >50-100 μM; D: >100 μM.
Regarding `O=C1CC2(CCN(c3ncccc3C(F)(F)F)CC2)CN1c1cnc2cnn(CC(F)F)c2n1` [Compound 113, 2-[1-(2,2-difluoroethyl)-1H-pyrazolo[3,4-b]pyrazin-6-yl]-8-[3-(trifluoromethyl)pyridin-2-yl]-2,8-diazaspiro[4.5]decan-3-one], the EC50 (as a rule, the concentration at which the effect is half-maximal) was over 100 µM.
On to `O=C1CCC2(CN(c3cnc4cnn(CC(F)F)c4n3)C2)CN1c1cccc(C(F)(F)F)n1` [Compound 114, 2-[1-(2,2-difluoroethyl)-1H-pyrazolo[3,4-b]pyrazin-6-yl]-6-[6-(trifluoromethyl)pyridin-2-yl]-2,6-diazaspiro[3.5]nonan-7-one], for which the EC50 lay within 10 to 50 µM.
The value for `O=C1N(c2cccc(C(F)(F)F)n2)CCCC12CN(c1cnc3cnn(CC(F)F)c3n1)C2` [Compound 115, 2-[1-(2,2-difluoroethyl)-1H-pyrazolo[3,4-b]pyrazin-6-yl]-6-[6-(trifluoromethyl)pyridin-2-yl]-2,6-diazaspiro[3.5]nonan-5-one] was 10 to 50 µM; that for `COCCN1CCC2(CCN(c3cnc4cnn(CC(F)F)c4n3)CC2)C1=O` [Compound 116, 8-[1-(2,2-difluoroethyl)-1H-pyrazolo[3,4-b]pyrazin-6-yl]-2-(2-methoxyethyl)-2,8-diazaspiro[4.5]decan-1-one] was 10 to 50 µM.
Consider `FC(F)Cn1ncc2ncc(N3CC4(CCN(c5ccnc(C(F)(F)F)c5)CC4)C3)nc21` [Compound 117, 2-[1-(2,2-difluoroethyl)-1H-pyrazolo[3,4-b]pyrazin-6-yl]-7-[2-(trifluoromethyl)pyridin-4-yl]-2,7-diazaspiro[3.5]nonane], for which the EC50 is under 10 µM.
With `O=C1N(c2cnc3cnn(CC(F)F)c3n2)CCC12CCN(c1ccnc(C(F)(F)F)c1)CC2` [Compound 118, 2-[1-(2,2-difluoroethyl)-1H-pyrazolo[3,4-b]pyrazin-6-yl]-8-[2-(trifluoromethyl)pyridin-4-yl]-2,8-diazaspiro[4.5]decan-1-one] the figure was 10 to 50 µM.
The molecule `O=C1N(c2cnc3cnn(CC(F)F)c3n2)CCC12CCN(c1ccc(C(F)(F)F)nc1)CC2` [Compound 119, 2-[1-(2,2-difluoroethyl)-1H-pyrazolo[3,4-b]pyrazin-6-yl]-8-[6-(trifluoromethyl)pyridin-3-yl]-2,8-diazaspiro[4.5]decan-1-one] yielded an EC50 of under 10 µM.
With `O=C1N(c2cnc3cnn(CC(F)F)c3n2)CCC12CCN(c1ncccc1C(F)(F)F)CC2` [Compound 120, 2-[1-(2,2-difluoroethyl)-1H-pyrazolo[3,4-b]pyrazin-6-yl]-8-[3-(trifluoromethyl)pyridin-2-yl]-2,8-diazaspiro[4.5]decan-1-one] the figure was under 10 µM; with `O=C1N(c2cnc3cnn(CC(F)F)c3n2)CCC12CCN(c1ccc(C(F)(F)F)cn1)CC2` [Compound 121, 2-[1-(2,2-difluoroethyl)-1H-pyrazolo[3,4-b]pyrazin-6-yl]-8-[5-(trifluoromethyl)pyridin-2-yl]-2,8-diazaspiro[4.5]decan-1-one], under 10 µM; with `O=C1N(c2cnc3cnn(CC(F)F)c3n2)CCC12CCN(c1cncc(C(F)(F)F)c1)CC2` [Compound 122, 2-[1-(2,2-difluoroethyl)-1H-pyrazolo[3,4-b]pyrazin-6-yl]-8-[5-(trifluoromethyl)pyridin-3-yl]-2,8-diazaspiro[4.5]decan-1-one], under 10 µM.
In turn, `FC(F)Cn1ncc2ncc(N3CC4(CCN(c5ncccc5C(F)(F)F)CC4)C3)nc21` [Compound 123, 2-[1-(2,2-difluoroethyl)-1H-pyrazolo[3,4-b]pyrazin-6-yl]-7-[3-(trifluoromethyl)pyridin-2-yl]-2,7-diazaspiro[3.5]nonane] yielded an EC50 of 10 to 50 µM.
Consider `FC(F)Cn1ncc2ncc(N3CC4(CCN(c5ccc(C(F)(F)F)cn5)CC4)C3)nc21` [Compound 124, 2-[1-(2,2-difluoroethyl)-1H-pyrazolo[3,4-b]pyrazin-6-yl]-7-[5-(trifluoromethyl)pyridin-2-yl]-2,7-diazaspiro[3.5]nonane], for which the concentration giving a half-maximal response (EC50) was under 10 µM.
For `FC(F)Cn1ncc2ncc(N3CC4(CCN(c5cccc(C(F)(F)F)n5)CC4)C3)nc21` [Compound 125, 2-[1-(2,2-difluoroethyl)-1H-pyrazolo[3,4-b]pyrazin-6-yl]-7-[6-(trifluoromethyl)pyridin-2-yl]-2,7-diazaspiro[3.5]nonane], the EC50 is 10 to 50 µM.
Regarding `FC(F)Cn1ncc2ncc(N3CC4(CCN(c5cncc(C(F)(F)F)c5)CC4)C3)nc21` [Compound 126, 2-[1-(2,2-difluoroethyl)-1H-pyrazolo[3,4-b]pyrazin-6-yl]-7-[5-(trifluoromethyl)pyridin-3-yl]-2,7-diazaspiro[3.5]nonane], the half-maximal effective concentration (EC50) is under 10 µM.
On to `FC(F)Cn1ncc2ncc(N3CC4(CCN(c5ccc(C(F)(F)F)nc5)CC4)C3)nc21` [Compound 127, 2-[1-(2,2-difluoroethyl)-1H-pyrazolo[3,4-b]pyrazin-6-yl]-7-[6-(trifluoromethyl)pyridin-3-yl]-2,7-diazaspiro[3.5]nonane], for which the half-maximal effective concentration (EC50) is under 10 µM.
With `FC(F)Cn1ncc2ncc(N3CC4(CCN(c5cnccc5C(F)(F)F)CC4)C3)nc21` [Compound 128, 2-[1-(2,2-difluoroethyl)-1H-pyrazolo[3,4-b]pyrazin-6-yl]-7-[4-(trifluoromethyl)pyridin-3-yl]-2,7-diazaspiro[3.5]nonane] the figure was 10 to 50 µM.
The value for `FC(F)Cn1ncc2ncc(N3CC4(CCN(c5cccnc5C(F)(F)F)CC4)C3)nc21` [Compound 129, 2-[1-(2,2-difluoroethyl)-1H-pyrazolo[3,4-b]pyrazin-6-yl]-7-[2-(trifluoromethyl)pyridin-3-yl]-2,7-diazaspiro[3.5]nonane] was 10 to 50 µM; that for `FC(F)Cn1ncc2ncc(NC3CCC4(CC3)CN(c3cccc(C(F)(F)F)n3)C4)nc21` [Compound 130, N-[1-(2,2-difluoroethyl)-1H-pyrazolo[3,4-b]pyrazin-6-yl]-2-[6-(trifluoromethyl)pyridin-2-yl]-2-azaspiro[3.5]nonan-7-amine] was 10 to 50 µM.
The value for `FC(F)Cn1ncc2ncc(N3CC4(CC(COc5cccnc5C(F)(F)F)C4)C3)nc21` [Compound 131, 2-[1-(2,2-difluoroethyl)-1H-pyrazolo[3,4-b]pyrazin-6-yl]-6-({[2-(trifluoromethyl)pyridin-3-yl]oxy}methyl)-2-azaspiro[3.3]heptane] was under 10 µM; that for `FC(F)Cn1ncc2ncc(N3CC4(CC(COc5cc(C(F)(F)F)ccn5)C4)C3)nc21` [Compound 132, 2-[1-(2,2-difluoroethyl)-1H-pyrazolo[3,4-b]pyrazin-6-yl]-6-({[4-(trifluoromethyl)pyridin-2-yl]oxy}methyl)-2-azaspiro[3.3]heptane] was 10 to 50 µM.
With `FC(F)Cn1ncc2ncc(N3CC4(CC(COc5ccc(C(F)(F)F)nc5)C4)C3)nc21` [Compound 133, 2-[1-(2,2-difluoroethyl)-1H-pyrazolo[3,4-b]pyrazin-6-yl]-6-({[6-(trifluoromethyl)pyridin-3-yl]oxy}methyl)-2-azaspiro[3.3]heptane], the concentration giving a half-maximal response (EC50) is under 10 µM.
Turning to `FC(F)Cn1ncc2ncc(N3CC4(CC(COc5cccc(C(F)(F)F)n5)C4)C3)nc21` [Compound 134, 2-[1-(2,2-difluoroethyl)-1H-pyrazolo[3,4-b]pyrazin-6-yl]-6-({[6-(trifluoromethyl)pyridin-2-yl]oxy}methyl)-2-azaspiro[3.3]heptane], the EC50 was under 10 µM.
The molecule `O=C1N(c2cccnc2C(F)(F)F)CCC12CCN(c1cnc3cnn(CC(F)F)c3n1)CC2` [Compound 135, 8-[1-(2,2-difluoroethyl)-1H-pyrazolo[3,4-b]pyrazin-6-yl]-2-[2-(trifluoromethyl)pyridin-3-yl]-2,8-diazaspiro[4.5]decan-1-one] yielded an EC50 of 50 to 100 µM.
With `FC(F)(F)Cn1ncc2ncc(N3CC4(CCCN(c5ccc(C(F)(F)F)nc5)C4)C3)nc21` [Compound 136, 2-[1-(2,2,2-trifluoroethyl)-1H-pyrazolo[3,4-b]pyrazin-6-yl]-6-[6-(trifluoromethyl)pyridin-3-yl]-2,6-diazaspiro[3.5]nonane] the figure was 10 to 50 µM; with `Cc1nn(CC(F)F)c2nc(N3CC4(CCCN(c5ccc(C(F)(F)F)nc5)C4)C3)cnc12` [Compound 137, 2-[1-(2,2-difluoroethyl)-3-methyl-1H-pyrazolo[3,4-b]pyrazin-6-yl]-6-[6-(trifluoromethyl)pyridin-3-yl]-2,6-diazaspiro[3.5]nonane], over 100 µM; with `FC(F)(F)c1ccc(N2CCCC3(C2)CN(c2cncc(-c4nncs4)n2)C3)cn1` [Compound 138, 2-[6-(1,3,4-thiadiazol-2-yl)pyrazin-2-yl]-6-[6-(trifluoromethyl)pyridin-3-yl]-2,6-diazaspiro[3.5]nonane], 10 to 50 µM.
`FC(F)(F)Cn1ncc2ncc(N3CCC4(CCN(c5cc(C(F)(F)F)ccn5)CC4)C3)nc21` [Compound 139, 2-[1-(2,2,2-trifluoroethyl)-1H-pyrazolo[3,4-b]pyrazin-6-yl]-8-[4-(trifluoromethyl)pyridin-2-yl]-2,8-diazaspiro[4.5]decane] came in with an EC50 of 10 to 50 µM.
